Test results: patent US10266544B2, “Aryl substituted aminomethyl spectinomycin analogs as antibacterial agents” (ST. JUDE CHILDREN'S RESEARCH HOSPITAL, INC., priority 2013, dated 2019)
In brackets after ≈: the same amount, converted by molar mass. Counter-ions that a name gives are not always drawn. Like-named read-outs stand apart in the source and are kept apart here.

Assays:
Type in all cases: cell-based
[1] = tested on: MRSA, Staphylococcus aureus (NRS70); assay: MIC determination, microbroth dilution; settings: read-out: MIC MRSA
[2] = tested on: Legionella pneumophila (ATCC 33153); assay: microbe, parasite or virus in culture; settings: ATCC33153, 72 h, read-out: Zone of inhibition L.p.
[3] = tested on: M. tuberculosis clinical isolates; assay: microbe, parasite or virus in culture; settings: Mycobacterium tuberculosis
[4] = tested on: Escherichia coli (ATCC 700926); assay: MIC determination, microbroth dilution; settings: ATCC700926; Escherichia coli (ATCC 700926); read-out: MIC E.c.
[5] = tested on: Burkholderia cepacia (ATCC 25416); assay: MIC determination, microbroth dilution; settings: Burkholderia cepacia
[6] = tested on: Streptococcus pyogenes (ATCC 700294); assay: MIC determination, microbroth dilution
[7] = tested on: acinetobacter baumannii (ATCC 19606); assay: MIC determination, microbroth dilution; settings: ATCC19606
Bacillus anthracis = assay: microbe, parasite or virus in culture; settings: read-out: MIC B.a.
[8] = tested on: Stenotrophomonas maltophilia (ATCC 13637); assay: MIC determination, microbroth dilution
[9] = tested on: Neisseria gonorrhoeae (ATCC 49226); assay: Disc diffusion assay; settings: ATCC49226, 4 μg per disc, read-out: Zone of inhibition N.g.
[10] = tested on: Staphylococcus aureus (ATCC 29213); assay: MIC determination, microbroth dilution
[11] = tested on: Bacillus subtilis (ATCC 23857); assay: MIC determination, microbroth dilution
[12] = tested on: Neisseria meningitides (ATCC 13077); assay: Disc diffusion assay; settings: ATCC13077, 4 μg per disc, read-out: Zone of inhibition N.m.
Moraxella catarrhalis = assay: MIC determination (Table 6)
[13] = tested on: Proteus mirabilis (ATCC 25933); assay: MIC determination, microbroth dilution; settings: ATCC25933
Listeria monocytogenes = assay: MIC determination (Table 6)
[14] = tested on: Enterococcus faecalis (ATCC 33186); assay: MIC determination, microbroth dilution
[15] = tested on: Proteus vulgaris (ATCC 33420); assay: MIC determination, microbroth dilution; settings: ATCC33420
[16] = tested on: Pseudomonas aeruginosa (PA01); assay: MIC determination, microbroth dilution
[17] = tested on: Streptococcus pneumoniae (R6); assay: MIC determination, microbroth dilution; settings: read-out: MIC S. pn.
E. coli K12 ΔtolC = assay: microbe, parasite or virus in culture; settings: Escherichia coli, read-out: MIC E.c. Δtolc
[18] = tested on: Klebsiella pneumoniae (ATCC 33495); assay: MIC determination, microbroth dilution; settings: ATCC33495
[19] = tested on: Bacillus anthracis, Sterne 34F2; assay: microbe, parasite or virus in culture; settings: STERNE34F2, read-out: MIC B.a.
[20] = tested on: Haemophilus influenza (ATCC 49247); assay: microbe, parasite or virus in culture; settings: ATCC49247; Haemophilus influenza; 4 μg per disc; range of at least two experiments; read-out: Zone of inhibition H.i.
[21] = ATCC25416, read-out: MIC B.c., Burkholderia cepacia (ATCC 25416)
[22] = ATCC25416, read-out: MIC B.c., Burkholderia cepacia, Table 6
[23] = ATCC700294, Streptococcus pyogenes (ATCC 700294), read-out: MIC S. py.
[24] = ATCC13637, Stenotrophomonas maltophilia (ATCC 13637), read-out: MIC S.m.
[25] = ATCC23857, Bacillus subtilis (ATCC 23857), read-out: MIC B.s.
[26] = ATCC29213, Staphylococcus aureus (ATCC 29213), read-out: MIC S.a.
[27] = ATCC33186, Enterococcus faecalis (ATCC 33186), read-out: MIC E.f.

| SMILES | zone of inhibition at 4 µg/disc [2] | MIC ([3]; H37RV, read-out: MIC H37Rv) | MIC [4] | MIC [5, 21] | MIC [5, 22] | MIC [6, 23] | MIC [7] | MIC (Bacillus anthracis) | MIC [8, 24] | zone of inhibition at 4 µg/disc [9] | MIC [11, 25] | zone of inhibition at 4 µg/disc [12] | MIC (Moraxella catarrhalis) | MIC [13] | MIC (Listeria monocytogenes) | MIC [15] | MIC [16] | MIC ([17]; Streptococcus pneumoniae (R6)) | MIC [19] | zone of inhibition at 4 µg/disc [20] | also measured |
| --- | --- | --- | --- | --- | --- | --- | --- | --- | --- | --- | --- | --- | --- | --- | --- | --- | --- | --- | --- | --- | --- |
| CN[C@@H]1[C@H](O)[C@H](NC)[C@H]2O[C@]3(O)[C@H](O[C@@H]2[C@H]1O)O[C@H](C)C[C@@]3(O)CNCc1ccc(C(C)C)cc1 [compound 23, 3′-(R)-3′-[(4-isopropyl)benzylaminomethyl)]dihydrospectinomycin Trihydrochloride] | 12 mm | 25 µg/mL | 12.5 µg/mL | > 200 µg/mL | > 200 µg/mL | 1.6 µg/mL | 50 µg/mL | 12.5 µg/mL | 6.3 µg/mL | 18 mm | 6.3 µg/mL | 17 mm | 3.1 to 6.3 µg/mL | > 200 µg/mL | 6.3 µg/mL | > 200 µg/mL | 25 µg/mL | 1.6 to 3.1 µg/mL | 12.5 µg/mL | 15 mm | MIC ([1]; Staphylococcus aureus): 12.5 µg/mL; MIC ([10]; Staphylococcus aureus, ATCC29213, read-out: MIC S.a.): 12.5 to 25 µg/mL; MIC ([14]; Enterococcus faecalis, ATCC33186, read-out: MIC E.f.): 12.5 µg/mL; MIC (E. coli K12 ΔtolC): 3.1 to 6.3 µg/mL; MIC [18]: 50 µg/mL |
| CN[C@@H]1[C@H](O)[C@H](NC)[C@H]2O[C@]3(O)[C@H](O[C@@H]2[C@H]1O)O[C@H](C)C[C@@]3(O)CNCc1ccc(C)cc1C [compound 24, 3′-(R)-3′-[(2,4-dimethyl)benzylaminomethyl)]dihydrospectinomycin Trihydrochloride] | 18 mm | 25 µg/mL | 25 µg/mL | > 200 µg/mL | > 200 µg/mL | 1.6 µg/mL | 200 µg/mL | 50 µg/mL | 25 to 50 µg/mL | 18 mm | 12.5 µg/mL | 17 mm | 1.6 µg/mL | > 200 µg/mL | 12.5 µg/mL | 200 µg/mL | 50 µg/mL | 3.1 µg/mL | 50 µg/mL | 14 mm | MIC ([1]; Staphylococcus aureus (NRS70)): 50 µg/mL; MIC [10, 26]: 6.3 to 12.5 µg/mL; MIC [14, 27]: 12.5 µg/mL; MIC (E. coli K12 ΔtolC): 12.5 to 25 µg/mL; MIC [18]: 100 to 200 µg/mL |
| CN[C@@H]1[C@H](O)[C@H](NC)[C@H]2O[C@]3(O)[C@H](O[C@@H]2[C@H]1O)O[C@H](C)C[C@@]3(O)CNCc1cccc(OC(F)(F)F)c1 [compound 25, 3′-(R)-3′-[(3-trifluoromethoxyl)benzylaminomethyl)]dihydrospectinomycin Trihydrochloride] | 19 mm | 200 µg/mL |  |  | > 200 µg/mL | 1.6 µg/mL |  | 25 µg/mL | 12.5 to 25 µg/mL | 18 mm | 12.5 to 25 µg/mL | 18 mm | 6.3 µg/mL | > 200 µg/mL | 6.3 µg/mL | > 200 µg/mL | 50 to 100 µg/mL | 1.6 to 3.1 µg/mL | 25 µg/mL | 9 to 10 mm | MIC ([1]; Staphylococcus aureus (NRS70)): 50 µg/mL; MIC [10, 26]: 25 to 50 µg/mL; MIC [14, 27]: 12.5 to 25 µg/mL |
| CN[C@@H]1[C@H](O)[C@H](NC)[C@H]2O[C@]3(O)[C@H](O[C@@H]2[C@H]1O)O[C@H](C)C[C@@]3(O)CNCCc1cccs1 [compound 61, 3′-(R)-3′-[((2-(thiophen-2-yl)ethyl)aminomethyl]dihydrospectinomycintrihydrobromide] | 30 mm | 6.3 µg/mL | 25 µg/mL | ≥ 200 µg/mL | ≥ 200 µg/mL | 12.5 µg/mL | > 200 µg/mL | 12.5 to 50 µg/mL | 12.5 µg/mL | 13 mm | 6.3 µg/mL | 14 mm | 1.6 µg/mL | 200 µg/mL | 6.3 µg/mL | 100 to 200 µg/mL | > 200 µg/mL | 6.3 µg/mL | 12.5 to 50 µg/mL | 14 mm | MIC ([1]; Staphylococcus aureus (NRS70)): 25 to 50 µg/mL; MIC ([3]; read-out: MIC TN022): 6.3 µg/mL; MIC ([3]; read-out: MIC TN026): 6.3 µg/mL; MIC [10, 26]: 12.5 µg/mL; MIC (E. coli K12 ΔtolC): 3.1 to 6.3 µg/mL; MIC [18]: 50 µg/mL |
| CN[C@@H]1[C@H](O)[C@H](NC)[C@H]2O[C@]3(O)[C@H](O[C@@H]2[C@H]1O)O[C@H](C)C[C@@]3(O)CNCCc1ccc[nH]1 [compound 62, 3′-(R)-3′-[((2-(1H-pyrrol-2-yl)ethyl)aminomethyl]dihydrospectinomycintetrahydrobromide] | 12 mm | 50 µg/mL | 50 µg/mL | > 200 µg/mL | > 200 µg/mL | 200 µg/mL | > 200 µg/mL | 25 µg/mL | 6.3 µg/mL | 0 mm | 6.3 µg/mL | 0 mm | 12.5 µg/mL | 200 µg/mL | 25 µg/mL | 50 to 100 µg/mL | > 200 µg/mL | 100 µg/mL | 25 µg/mL | 0 mm | MIC ([1]; Staphylococcus aureus): 12.5 to 25 µg/mL; MIC ([3]; read-out: MIC TN022): 25 µg/mL; MIC ([3]; read-out: MIC TN026): 100 µg/mL; MIC [10, 26]: 25 µg/mL; MIC (E. coli K12 ΔtolC): 12.5 µg/mL; MIC [18]: 100 to 200 µg/mL |
| CN[C@@H]1[C@H](O)[C@H](NC)[C@H]2O[C@]3(O)[C@H](O[C@@H]2[C@H]1O)O[C@H](C)C[C@@]3(O)CNCCc1nccs1 [compound 64, 3′-(R)-3′-[((2-(thiazol-2-yl)ethyl)aminomethyl]dihydrospectinomycintetrahydrobromide] | 33 mm | 1.6 µg/mL | 50 to 100 µg/mL | > 200 µg/mL | > 200 µg/mL | 25 µg/mL | > 200 µg/mL | 50 µg/mL | 25 to 50 µg/mL | 8 mm | 12.5 to 25 µg/mL | 11 mm | 3.1 µg/mL | > 200 µg/mL | 12.5 µg/mL | > 200 µg/mL | > 200 µg/mL | 12.5 µg/mL | 50 µg/mL | 11 mm | MIC ([1]; Staphylococcus aureus (NRS70)): > 200 µg/mL; MIC ([3]; read-out: MIC TN022): 1.6 µg/mL; MIC ([3]; read-out: MIC TN026): 1.6 µg/mL; MIC [10, 26]: 50 to 100 µg/mL; MIC (E. coli K12 ΔtolC): 25 to 50 µg/mL; MIC [18]: 100 to 200 µg/mL |
| CN[C@@H]1[C@H](O)[C@H](NC)[C@H]2O[C@]3(O)[C@H](O[C@@H]2[C@H]1O)O[C@H](C)C[C@@]3(O)CNCC(C)c1ccccc1 (stereo partly drawn) [compound 65] | 22 mm | 50 µg/mL (≈ 104 µM) | 50 µg/mL (≈ 104 µM) | ≥ 200 µg/mL | ≥ 200 µg/mL |  | > 200 µg/mL | 12.5 µg/mL (≈ 26 µM) |  | 12 mm |  | 13 mm | 3.1 µg/mL (≈ 6.44 µM) | > 200 µg/mL | 12.5 µg/mL (≈ 26 µM) | > 200 µg/mL | > 200 µg/mL |  | 12.5 µg/mL (≈ 26 µM) | 10 mm | MIC ([1]; Staphylococcus aureus): 12.5 to 25 µg/mL (≈ 26 to 51.9 µM); MIC ([3]; read-out: MIC TN022): 100 µg/mL (≈ 208 µM); MIC ([3]; read-out: MIC TN026): 100 µg/mL (≈ 208 µM); MIC ([6]; Streptococcus pyogenes, ATCC700294, read-out: MIC S. py.): 12.5 µg/mL (≈ 26 µM); MIC ([8]; Stenotrophomonas maltophilia, ATCC13637, read-out: MIC S.m.): 12.5 µg/mL (≈ 26 µM); MIC [10, 26]: 25 µg/mL (≈ 51.9 µM); MIC ([11]; Bacillus subtilis, ATCC23857, read-out: MIC B.s.): 12.5 µg/mL (≈ 26 µM); MIC ([17]; Streptococcus pneumoniae): 12.5 µg/mL (≈ 26 µM); MIC (E. coli K12 ΔtolC): 6.3 to 12.5 µg/mL (≈ 13.1 to 26 µM); MIC [18]: > 200 µg/mL |
